Test results taken from ChEMBL document CHEMBL3352159, “Protolichesterinic acid derivatives: α-methylene-γ-lactones as potent dual activators of PPARγ and Nrf2 transcriptional factors” (Bioorg Med Chem Lett, 2014).
Calls of active or inactive are those of the source. No cut-off for these calls is given here.

Experiments:
[1] = test system: Peritoneal macrophage cell; assay: Induction of Dectin-1 mRNA expression in mouse peritoneal macrophages isolated from PPARgamma -/- mouse treated at 5 uM for 5 hrs by qRT-PCR analysis; format: functional, cell-based
[2] = Cytotoxicity against mouse peritoneal macrophages after 24 hrs; format: cell-based; details: Peritoneal macrophage cell
[3] = target: T1, Peroxisome proliferator-activated receptor gamma (Mus musculus) (UniProt P37238); assay: Activation of PPARgamma in mouse peritoneal macrophages assessed as increase in Dectin-1 mRNA expression treated for 5 hrs by qRT-PCR analysis
T1 sequence (whole entry): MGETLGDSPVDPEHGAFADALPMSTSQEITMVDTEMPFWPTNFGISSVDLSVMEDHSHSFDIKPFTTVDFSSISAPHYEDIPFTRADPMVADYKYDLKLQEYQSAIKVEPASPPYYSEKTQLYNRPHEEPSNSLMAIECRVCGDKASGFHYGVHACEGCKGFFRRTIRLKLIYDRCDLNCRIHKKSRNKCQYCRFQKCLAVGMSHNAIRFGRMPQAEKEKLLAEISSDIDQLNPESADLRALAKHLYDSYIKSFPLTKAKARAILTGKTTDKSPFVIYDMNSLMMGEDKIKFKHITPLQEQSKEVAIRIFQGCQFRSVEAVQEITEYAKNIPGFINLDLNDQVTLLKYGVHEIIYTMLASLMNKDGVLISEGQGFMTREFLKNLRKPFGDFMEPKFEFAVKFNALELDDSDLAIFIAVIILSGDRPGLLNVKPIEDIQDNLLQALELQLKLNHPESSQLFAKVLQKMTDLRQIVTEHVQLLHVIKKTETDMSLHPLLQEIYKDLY

[4] = Cytotoxicity against human A375M cells after 4 days by MTT assay; format: functional, cell-based; details: 96 h
[5] = test system: Peritoneal macrophage cell; assay: Induction of Dectin-1 mRNA expression in mouse peritoneal macrophages isolated from PPARgamma -/- mouse treated at 1 uM for 5 hrs by qRT-PCR analysis; format: functional, cell-based
[6] = target: Nuclear factor erythroid 2-related factor 2 (Mus musculus) (UniProt Q60795); assay: Activation of Nrf2 in mouse peritoneal macrophages assessed as increase in NQO-1 mRNA expression treated for 5 hrs by qRT-PCR analysis
[7] = test system: Peritoneal macrophage cell; assay: Induction of CD36 mRNA expression in mouse peritoneal macrophages isolated from PPARgamma -/- mouse treated at 1 uM for 5 hrs by qRT-PCR analysis; format: functional, cell-based
[8] = target: T1, Peroxisome proliferator-activated receptor gamma (Mus musculus); assay: Activation of PPARgamma in mouse peritoneal macrophages assessed as increase in CD36 mRNA expression treated for 5 hrs by qRT-PCR analysis
[9] = target: Nuclear factor erythroid 2-related factor 2 (Mus musculus) (UniProt Q60795); assay: Activation of Nrf2 in mouse peritoneal macrophages assessed as increase in HO-1 mRNA expression treated for 5 hrs by qRT-PCR analysis
[10] = test system: Peritoneal macrophage cell; assay: Induction of HO-1 mRNA expression in mouse peritoneal macrophages isolated from PPARgamma -/- mouse treated at 1 uM for 5 hrs by qRT-PCR analysis; format: functional, cell-based
[11] = test system: Peritoneal macrophage cell; assay: Induction of NQO-1 mRNA expression in mouse peritoneal macrophages isolated from PPARgamma -/- mouse treated at 1 uM for 5 hrs by qRT-PCR analysis; format: functional, cell-based

Sequence of Nuclear factor erythroid 2-related factor 2 (Mus musculus) (Q60795 whole entry, looked up): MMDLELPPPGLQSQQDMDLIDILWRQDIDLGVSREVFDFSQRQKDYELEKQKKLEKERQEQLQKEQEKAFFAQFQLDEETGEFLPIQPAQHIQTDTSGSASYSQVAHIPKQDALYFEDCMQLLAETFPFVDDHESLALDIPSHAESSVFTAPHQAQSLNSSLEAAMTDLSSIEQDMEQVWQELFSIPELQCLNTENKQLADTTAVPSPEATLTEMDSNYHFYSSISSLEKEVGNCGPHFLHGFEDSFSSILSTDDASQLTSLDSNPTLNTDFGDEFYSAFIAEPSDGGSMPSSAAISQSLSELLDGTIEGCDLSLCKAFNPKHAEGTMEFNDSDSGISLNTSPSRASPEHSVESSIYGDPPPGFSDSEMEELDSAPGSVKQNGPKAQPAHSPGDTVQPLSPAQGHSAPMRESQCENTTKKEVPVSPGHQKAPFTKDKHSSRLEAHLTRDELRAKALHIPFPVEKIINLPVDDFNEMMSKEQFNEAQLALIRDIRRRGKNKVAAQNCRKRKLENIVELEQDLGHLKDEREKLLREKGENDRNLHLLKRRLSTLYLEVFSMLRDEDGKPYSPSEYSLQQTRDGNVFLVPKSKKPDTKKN

Activity [3]	Structure (SMILES)	Activity [1]	IC50 [4]	Activity [5]	also measured
Active	CCCCCCCCCCCCCC1C=C(C)C(=O)O1 (racemic)	inactive	> 100 µM	inactive	IC50 [2]: > 100 µM
	C=C1C(=O)OC(CCCCCCCCCCCCC)C1CCc1ccccc1 (mixture of isomers)		3.3 µM		
Active	CCCCCCCCCCCCC[C@H]1OC(=O)C(C)=C1C(=O)O	inactive	72 µM	inactive	IC50 [2]: > 100 µM
	C=C1CC(CCc2ccccc2)OC1=O (stereo unspecified)		8.7 µM		
	C=C1C(=O)OC(c2ccccc2)C1c1ccccc1 (mixture of isomers)		6.3 µM		
	C=C1CC(c2ccccc2)OC1=O (stereo unspecified)		6.7 µM		
	C=C1C(=O)OC(CCc2ccccc2)C1CCCC (mixture of isomers)		5 µM		
Active	C=C1CC(CCCC)OC1=O (stereo unspecified)	inactive	17.3 µM	inactive	Activity [6]: Active; Activity [7]: inactive; Activity [8]: Active; Activity [9]: Active; IC50 [2]: 31.2 µM; Activity [10]: inactive; Activity [11]: inactive
Active	CN(CCOc1ccc(CC2SC(=O)NC2=O)cc1)c1ccccn1 (stereo unspecified)	inactive		inactive	
Active	C=C1C(=O)OC(c2ccccc2)C1CCCC (mixture of isomers)	inactive	7.8 µM	inactive	Activity [6]: Active; Activity [7]: inactive; Activity [8]: Active; Activity [9]: Active; IC50 [2]: 12.7 µM; Activity [10]: inactive; Activity [11]: inactive
	C=C1CC(CCCCCCCCCCCCC)OC1=O (stereo unspecified)		3.9 µM		
	C=C1C(=O)OC(CCc2ccccc2)C1CCc1ccccc1 (stereo unspecified)		2.7 µM		
	C=C1C(=O)OC(CCCC)C1CCc1ccccc1 (stereo unspecified)		5.5 µM		
	C=C1C(=O)OC(CCCCCCCCCCCCC)C1CC (mixture of isomers)		4.1 µM		
	C=C1C(=O)OC(c2ccccc2)C1CCc1ccccc1 (mixture of isomers)		2.8 µM		
	C=C1C(=O)O[C@@H](CCCCCCCCCCCCC)[C@@H]1C(=O)O [PROTOLICHESTERINIC ACID]		8.6 µM		
